Columns and labels:
Botrytis cinerea = test: Activity against the grey mold Botrytis cinerea in the microtiterplate test; assay type: cell-based; conditions: 31 ppm, MTP, 405 nm, 7 days after inoculation
Experimental: The active compounds were formulated separately as a stock solution having a concentration of 10000 ppm in dimethyl sulfoxide.
The stock solutions were mixed according to the ratio, pipetted onto a micro titer plate (MTP) and diluted with water to the stated concentrations. A spore suspension of Botrytis cinerea in an aqueous biomalt or yeast-bactopeptone-sodium acetate solution was then added. The plates were placed in a water vapor-saturated chamber at a temperature of 18° C. Using an absorption photometer, the MTPs were measured at 405 nm 7 days after the inoculation.

Corynespora cassiicola = test: Activity against Corynespora cassiicola in the microtiterplate test; assay type: cell-based; conditions: 31 ppm, MTP
Experimental: The active compounds were formulated separately as a stock solution having a concentration of 10000 ppm in dimethyl sulfoxide. The stock solutions were mixed according to the ratio, pipetted onto a micro titer plate (MTP) and diluted with water to the stated concentrations. A spore suspension of the Corynespora cassiicola in an aqueous biomalt or yeast-bactopeptone-sodium acetate solution was then added.

Sclerotinia sclerotiorum = test: Preventative fungicidal control of white mold on oilseed rape caused by Sclerotinia sclerotiorum (green house); assay type: in vivo; conditions: 100 ppm, assessed after 14 days, untreated 100%
Experimental: The compound was dissolved in a mixture of acetone and/or dimethylsulfoxide and the wetting agent/emulsifier Wettol, which is based on ethoxylated alkylphenoles, in a ratio (volume) solvent-emulsifier of 99 to 1 to give a total volume of 5 ml. Subsequently, water was added to total volume of 100 ml.
This stock solution was then diluted with the described solvent-emulsifier-water mixture to the final concentration given in the table below.
Oilseed rapes were grown in pots to the 13 to 14 leaf stage. These plants were sprayed to runoff with previously described spray solution, containing the concentration of active ingredient or their mixture mentioned in the table below.
The plants could air-dry. The next day the applicated rape petals were fixed with 25 μl of 2.5% methylcellulose on leaf 1 and 2. 25 μl of a spore suspension of Sclerotinia sclerotiorum was pipetted on each fixed rape petal. After 14 days at 20° C. and a relative humidity of 60% the extent of fungal attack on the leaves was visually assessed as % diseased leaf area.

Compound	growth of the pathogen (Botrytis cinerea) [%]	growth of the pathogen (Corynespora cassiicola) [%]	growth of the pathogen (% diseased leaf area) (Sclerotinia sclerotiorum)
C[C@@H]1N=C(c2cnc3c(F)cccc3c2)c2cccc(F)c2OC1(C)C [Ex-3, (3S)-9-fluoro-5-(8-fluoro-3-quinolyl)-2,2,3-trimethyl-3H-1,4-benzoxazepine]	0		
C[C@@H]1N=C(c2cnc3ccccc3c2)c2cccc(F)c2OC1(C)C [Ex-4, (3S)-9-fluoro-2,2,3-trimethyl-5-(3-quinolyl)-3H-1,4-benzoxazepine]	0	1	
C[C@@H]1N=C(c2cnc3c(F)cccc3c2)c2ccccc2OC1(C)C [Ex-1, (S)-5-(8-fluoroquinolin-3-yl)-2,2,3-trimethyl-2,3-dihydrobenzo[f][1,4]oxazepane]	0		less than 1%

— patent US20260234160A1, “NEW SUBSTITUTED QUINOLINE COMPOUNDS FOR COMBATITNG PHYTOPATHOGENIC FUNGI” (BASF SE, priority 2023, published 2026)
